From US20250197420A1, “MACROCYCLIC COMPOUNDS, COMPOSITIONS, AND METHODS OF USING THEREOF” (Sionna Therapeutics Inc., priority 2022, published 2025)

What was measured:
[1] = tested on: Primary human bronchial epithelial cells from a ΔF508 homozygous CF donor (CF-HBE cells); assay: TECC24 recording of CFTR-mediated transepithelial chloride transport, AUC fold over benchmark VX-809 @10 μM; assay type: cell-based; conditions: 48 hours incubation, AUC of forskolin-stimulated IEQ
Procedure, shortened: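 CF-HBE cells on inserts were treated with compound for 48 h at 36.5 °C, then recorded in current-clamp with benzamil 10 μM, forskolin 10 μM, and finally CFTR inhibitor-172 20 μM in pH 7.4 Hepes saline. Equivalent Cl− current AUC between forskolin and inhibitor addition is expressed as a ratio to VX-809 AUC: A <3, B 3–6, C 6–20.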

[2] = target: T1, Purified recombinant NBD1 (Homo sapiens, UniProt P13569); assay: Aggregation analysis using differential static light scattering (DSLS): thermal stability of NBD1; assay type: binding; conditions: NBD1 0.2 mg/ml; Tagg of compound well minus average Tagg of DMSO control wells
T1 construct: Purified recombinant NBD1 was produced using previously described methods; made in house
T1 sequence (P13569 423-646 limits assumed): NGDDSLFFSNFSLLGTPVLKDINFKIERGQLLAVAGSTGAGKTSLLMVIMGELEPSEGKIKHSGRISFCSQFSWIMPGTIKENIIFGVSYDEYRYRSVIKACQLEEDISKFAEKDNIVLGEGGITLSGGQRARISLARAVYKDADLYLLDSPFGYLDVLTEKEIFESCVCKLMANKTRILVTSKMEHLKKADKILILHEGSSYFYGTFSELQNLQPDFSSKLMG
Procedure, shortened: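 Recombinant NBD1 at 0.2 mg/ml in Tris/NaCl/MgCl2 buffer with 2 mM ATP, 2 mM DTT, 1% glycerol, pH 7.6, was incubated with compound and heated at 1 °C/min to 70 °C while static light scattering was monitored. Tagg was taken from the curve inflection point and reported as ΔTagg relative to DMSO controls.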

SMILES	TECC (test agent AUC divided by VX-809 AUC) [1]	DSLS (ΔTagg) [2]
CC1(c2cccc(CCC(=O)O)c2)CCCC2(CC2)CNC(=O)CCc2c(c(F)c(F)c3[nH]ccc23)Oc2ccc(F)c(c2)-c2ncc1[nH]2 (single isomer, unassigned) [Compound 69B, 3-[3-(22,23,29-trifluoro-6-methyl-13-oxo-spiro[25-oxa-3,12,20,31-tetrazapentacyclo-[24.3.1.12,5.016,24.017,21]hentriaconta-1(30),2,4,16,18,21,23,26,28-nonaene-10,1′-cyclopropane]-6-yl)phenyl]propanoic acid]	B (a value between 3 and 6 is marked “B”)	A (an ΔTagg value less than or equal to 5 °C is marked “A”)
CN1CC(C)(C)CCC(C)(c2cccc(CCC(=O)O)c2)c2nc(n(C)n2)-c2cc(ccc2F)Oc2c(F)cc3[nH]ccc3c2CCC1=O (single isomer, unassigned) [Compound 75A, 3-[3-(22,28-difluoro-3,6,9,9,11-pentamethyl-12-oxo-24-oxa-3,4,11,19,30-pentazapentacyclo[23.3.1.12,5.015,23.016,20]triaconta-1(29),2(30),4,15,17,20,22,25,27-nonaen-6-yl)phenyl]propanoic acid]	B (a value between 3 and 6 is marked “B”)	B (a value above 5 °C and less than or equal to 10 °C is marked “B”)
[2H]C([2H])([2H])C1(c2cccc(CCC(=O)O)c2)CCCC(C)(C)CN(C)C(=O)CCc2c(c(F)cc3[nH]ccc23)Oc2ccc(F)c(c2)-c2ncc1[nH]2 (single isomer, unassigned) [Compound 66A]	A (a TECC value less than 3 is marked “A”)	A (an ΔTagg value less than or equal to 5 °C is marked “A”)
[2H]C([2H])([2H])n1nc2nc1-c1cc(ccc1F)Oc1c(F)cc3[nH]ccc3c1CCC(=O)NCC(C)(C)CCCC2(C)c1cccc(CCC(=O)O)c1 (single isomer, unassigned) [Compound 76A, 3-[3-[23,29-difluoro-6,10,10-trimethyl-13-oxo-3-(trideuteriomethyl)-25-oxa-3,4,12,20,31-pentazapentacyclo[24.3.1.12,5.016,24.017,21]hentriaconta-1(30),2(31),4,16,18,21,23,26,28-nonaen-6-yl]phenyl]propanoic acid]	A (a TECC value less than 3 is marked “A”)	A (an ΔTagg value less than or equal to 5 °C is marked “A”)
CCOC(=O)Cc1cccc(C2(C)CCCC(C)(C)CN(C)C(=O)CCc3c(c(F)cc4[nH]ccc34)Oc3ccc(F)c(c3)-c3ncc2[nH]3)c1 (single isomer, unassigned) [Compound 64A, ethyl 2-[3-(23,29-difluoro-6,10,10,12-tetramethyl-13-oxo-25-oxa-3,12,20,31-tetrazapentacyclo-[24.3.1.12,5.016,24.017,21]hentriaconta-1(30),2,4,16,18,21,23,26,28-nonaen-6-yl)phenyl]acetate]	A (a TECC value less than 3 is marked “A”)	A (an ΔTagg value less than or equal to 5 °C is marked “A”)
CN1CC(C)(C)CCCC[C@](C)(c2cccc(CC(C)(C)C(=O)O)c2)c2nc(n(C)n2)-c2cc(ccn2)Oc2c(F)cc3[nH]ccc3c2CC1=O [Compound 124, 3-[3-[(6R)-23-fluoro-3,6,11,11,13-pentamethyl-14-oxo-25-oxa-3,4,13,20,29,31-hexazapentacyclo[24.3.1.12,5.016,24.017,21]hentriaconta-1(30),2(31),4,16,18,21,23,26,28-nonaen-6-yl]phenyl]-2,2-dimethyl-propanoic acid]	A (a TECC value less than 3 is marked “A”)	A (an ΔTagg value less than or equal to 5 °C is marked “A”)
